SMILES strings stand for the structures.

One compound from patent US7459284B2, “Chemiluminescent acridinium compounds and analogues thereof as substrates of hydrolytic enzymes” (Siemens Healthcare Diagnostics Inc., priority 1999, dated 2008) can be followed below.

Data set [1] can be described thus: Light emission spectra by Fast Spectral Scanning System (FSSS). The class given is physicochemical. How it is done: The light emission spectra of compounds 1˜12 and 15˜18 were determined by a Fast Spectral Scanning System (FSSS) of Photo Research (a division of Kollmorgen Corp.) of Burbank, Calif., U.S.A. The experiment was carried out in a dark room. Each compound was dissolved in acetonitrile or N,N-dimethylformamide. The resulting concentrate was diluted with the same solvent to form the working solution, which upon flashing gave a light emission with an adequate intensity. A typical experiment utilized 10˜100 μg or more of the sample in 500 μl of the solvent contained in a 13×100 mm borosilicate test tube. The tube was placed on a test tube rack raised to a proper height. A piece of aluminum foil was placed on the back of the tube to enhance the detectability of the emitted light. The FSSS optical head was placed in front of the tube at an approximate distance of about 130 mm with its lens focused on the liquid in the tube. The sample solution was first treated with 0.35 ml of the Flashing Reagent #1 (Bayer Diagnostics) containing 0.1 N HNO3 and 0.5% H2O2. The room was then darkened, and 0.35 ml of the Flashing Reagent #2 (Bayer Diagnostics) containing 0.25 N NaOH and 0.5% ARQUAD was added to the reaction mixture immediately. (See U.S. Pat. No. 4,927,769, which is commonly assigned and incorporated herein by reference.) The light which was generated instantaneously following the addition of the Reagent #2 was recorded by FSSS for 5 seconds starting from about one second before the Reagent #2 was added.

For data set [2], the target named is T1, alkaline phosphatase (Bos taurus, UniProt P19111). The data set is described as follows: Enzymatic conversion of substrate by alkaline phosphatase (HPLC analysis). In kind it is biochemical. Particulars: alkaline aqueous medium; about 1 hour. On the procedure: A 1 mM DMF solution of the acridinium 3-enol-phosphate (13) was mixed with 150 μL of 100 mM Tris pH 9 also containing 1 mM MgCl2. Alkaline phosphatase (5 μl of a 2 mg/ml solution) was added and the reaction was incubated at room temperature for ˜1 hour. […] The product was isolated by semi-preparative HPLC using a 7.8×300 mm, C18 column. MALDI-TOF MS of the product indicated this was indeed the keto product (14): m/z 521.36 obs. (520.56 calc.).
T1 sequence (P19111 20-506): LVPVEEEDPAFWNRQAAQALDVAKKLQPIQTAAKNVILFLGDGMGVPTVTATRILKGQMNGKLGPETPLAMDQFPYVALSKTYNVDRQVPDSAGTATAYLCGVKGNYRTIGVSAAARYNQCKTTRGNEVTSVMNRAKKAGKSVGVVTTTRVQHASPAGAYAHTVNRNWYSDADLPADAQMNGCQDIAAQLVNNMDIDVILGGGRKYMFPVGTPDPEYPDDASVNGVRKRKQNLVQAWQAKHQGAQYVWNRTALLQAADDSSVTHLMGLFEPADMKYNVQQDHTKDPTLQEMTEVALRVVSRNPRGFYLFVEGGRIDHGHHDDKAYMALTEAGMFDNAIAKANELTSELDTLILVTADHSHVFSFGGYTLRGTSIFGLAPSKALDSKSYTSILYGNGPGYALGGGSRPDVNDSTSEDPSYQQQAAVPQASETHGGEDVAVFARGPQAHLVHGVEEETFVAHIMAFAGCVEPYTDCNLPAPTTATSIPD
A 20 μL DMF solution of the acridan (15) (1.7 mM) was combined with 180 μl of 0.15 M 2-amino-2-methyl-1-propanol pH 10.3 also containing 1 mM magnesium acetate. A clear blue solution was obtained (0.17 mM substrate), which was then treated with alkaline phosphatase (10^−10 moles). The blue color was discharged instantly. […] The reaction mixture was then evaluated by the FSSS to determine the light emission spectrum of the product, which is shown in FIG. 2N. The product was isolated by semi-preparative HPLC. […] (521.56 calc.).

The target of data set [3] is T1, alkaline phosphatase. The data set is described as follows: Alkaline phosphatase assay using 4′-Phos-AE (17) as chemiluminescent substrate. The class given is biochemical. Particulars: 0.1 mM substrate, pH 9 Tris, 3-4 hours room temperature; 0.1 ml reaction volume; measuring time 0.3 s. On the procedure: Treatment of a solution of 4′-Phos-AE (17, 0.1 mM,) in 100 mM Tris pH 9, 1 mM MgCl2 with varying concentrations of alkaline phosphatase was carried out. The reactions were incubated for 3-4 hours at room temperature and were then sequentially diluted 10^4-fold into ‘flash buffer’ which contains 10 mM phosphate pH 8 with 150 mM NaCl, 0.1% BSA and 0.05% sodium azide. Chemiluminescence of a 25 μL solution was measured on a Bayer Diagnostics' Magic Lite Ananlyzer (MAL1) equipped with a BG38 filter. A measuring time of 0.3 s was employed. Evaluation of the chemiluminescent activity of the reactions indicated a steady decrease in total chemiluminesence with increasing concentrations of enzyme. Thus, as the concentration of enzyme is increased, a greater proportion of the fast-emitting substrate 4′-Phos-AE is converted to the slow-emitting product 4′-OH-AE (18) leading to an overall decrease in light output (at a short measuring time). Alkaline phosphatase was easily detected at 5×10^−17 moles (0.1 ml reaction volume) in this assay.

A short description of data set [4]: Light emission kinetics of substrate vs product. The class given is physicochemical. The following applies: short measuring times (0.5-0.3 s). The source says: One of the more preferred chemiluminescent acridinium substrates of Formula XIII is compound 4′-Phos-AE (17).

For the compound `C[n+]1c2ccccc2c(C(=O)Oc2ccc(OP(=O)(O)O)cc2)c2ccccc21` [Compound 17, 4′-phosphophenyl 10-methyl acridinium-9-carboxylate trifluoromethanesulfonate], the “Emission Maximum” value in data set [1] (FSSS, hydrogen peroxide in strong alkaline solution) was 436 nm. Besides, in data set [1] (spectral region with signal intensity above 5% of peak height, FSSS scanning limit 380-780 nm, flashed with 0.1 N HNO3/0.5% H2O2 then 0.25 N NaOH/0.5% ARQUAD), the “Emission Range” value is given as 410-540 nm. Further, the “conversion by alkaline phosphatase” value in data set [2] is recorded as “readily converted”. Further, in data set [3], the “level of alkaline phosphatase detected” value worked out at 5e-17 mol. In addition, the “speed of light emission relative to product 18” value in data set [4] was about 190 times.
